Drawing on ChEMBL document CHEMBL1154961, “Structure-activity relationships of bacterial outer-membrane permeabilizers based on polymyxin B heptapeptides” (2010), this text covers MIC and Activity for 10 compounds.

The term MIC denotes the least concentration at which growth counts as inhibited. Higher therefore signals a need for much substance.

Converted amounts (≈) assume the structure as drawn.

Assay [1] concerns Escherichia coli. As to the kind of experiment: Antibacterial activity against Escherichia coli K-12 W3110 after 20 hrs by liquid microdilution method. The following applies: K-12 W3110, 20 h. The format is functional. (Broth dilution looks for growth in wells or tubes with falling amounts of substance.)
The subject of another assay is Staphylococcus aureus. As to the kind of experiment: Antibacterial activity against Staphylococcus aureus 209P after 20 hrs by liquid microdilution method. Format: functional.
Assay [2] concerns Escherichia coli. As to the kind of experiment: Induction of outer membrane permeability in Escherichia coli K-12 W3110 assessed as increase in erythromycin antibacterial activity after 20 hrs by liquid microdilution method. The format is functional, organism-based.
The test system of assay [3] is Escherichia coli. Nature of the assay: Induction of outer membrane permeability in Escherichia coli K-12 W3110 assessed as increase in novobiocin antibacterial activity after 20 hrs by liquid microdilution method. The format is functional, organism-based.

In the assay with Escherichia coli [1], `CC[C@H]1OC(=O)[C@H](C)[C@@H](O[C@H]2C[C@@](C)(OC)[C@@H](O)[C@H](C)O2)[C@H](C)[C@@H](O[C@@H]2O[C@H](C)C[C@H](N(C)C)[C@H]2O)[C@](C)(O)C[C@@H](C)C(=O)[C@H](C)[C@@H](O)[C@]1(C)O` [ERYTHROMYCIN] gave an MIC of 64 µg/mL (≈ 87.2 µM).

In the assay with Escherichia coli [1], `CC(C)C[C@@H]1NC(=O)[C@@H](Cc2ccccc2)NC(=O)[C@H](CCCN)N(C(=O)O)CCNC(=O)[C@H]([C@@H](C)O)NC(=O)[C@H](CCCN)NC(=O)[C@H](CCCN)NC1=O` yielded an MIC of more than 128 µg/mL.

As for `CC(C)C[C@@H]1NC(=O)[C@@H](Cc2ccccc2)NC(=O)[C@H](CN)N(C(=O)O)CCNC(=O)[C@H]([C@@H](C)O)NC(=O)[C@H](CN)NC(=O)[C@H](CCCN)NC1=O`, the MIC against Escherichia coli [1] is more than 128 µg/mL.

As for `CC(C)CCCCCCCC(=O)N[C@@H](C(=O)N[C@@H](CN)C(=O)NCC(=O)N1CCNC(=O)[C@H]([C@@H](C)O)NC(=O)[C@H](CCN)NC(=O)[C@H](CCN)NC(=O)[C@H](CC(C)C)NC(=O)[C@@H](Cc2ccccc2)NC(=O)[C@@H]1CCN)[C@@H](C)O`, the values for the MIC in the assay with Escherichia coli [1] and against Staphylococcus aureus were 0.5 µg/mL (≈ 0.447 µM) and 64 µg/mL (≈ 57.3 µM), respectively.

In the case of `CCCCCCCC(=O)N[C@@H](CCN)C(=O)N[C@@H](C(=O)N[C@@H](CCN)C(=O)N[C@H]1CCNC(=O)[C@H]([C@H](C)O)NC(=O)[C@H](CCN)NC(=O)[C@H](CCN)NC(=O)[C@H](CC(C)C)NC(=O)[C@@H](Cc2ccccc2)NC(=O)[C@H](CN)C1=O)[C@H](C)O`, the results for the MIC with Escherichia coli [1] and in the assay on Staphylococcus aureus were 16 µg/mL (≈ 13.8 µM) and more than 128 µg/mL, respectively.

`CC(C)C[C@@H]1NC(=O)[C@@H](Cc2ccccc2)NC(=O)[C@H](CN)N(C(=O)O)CCNC(=O)[C@H]([C@@H](C)O)NC(=O)[C@H](CN)NC(=O)[C@H](CN)NC1=O` came in with an MIC with Escherichia coli [1] of more than 128 µg/mL.

`CC(C)C[C@@H]1NC(=O)[C@@H](Cc2ccccc2)NC(=O)[C@H](CN)N(C(=O)O)CCNC(=O)[C@H]([C@@H](C)O)NC(=O)[C@H](CCCN)NC(=O)[C@H](CN)NC1=O`: in the assay on Escherichia coli [1], the MIC was more than 128 µg/mL.

In the assay with Escherichia coli [1], `CC(C)C[C@@H]1NC(=O)[C@@H](Cc2ccccc2)NC(=O)[C@H](CCN)N(C(=O)O)CCNC(=O)[C@H]([C@@H](C)O)NC(=O)[C@H](CCN)NC(=O)[C@H](CCN)NC1=O` yielded an MIC of more than 128 µg/mL. For the same compound, the Activity result in the assay with Escherichia coli [2] and in the assay with Escherichia coli [3] was “Dose-dependent effect” in each case.

Compound `CO[C@@H]1[C@@H](OC(N)=O)[C@@H](O)[C@H](Oc2ccc3c(O)c(NC(=O)c4ccc(O)c(CC=C(C)C)c4)c(=O)oc3c2C)OC1(C)C` [NOVOBIOCIN] had an MIC in the assay on Escherichia coli [1] of 128 µg/mL (≈ 209 µM).

For the compound `CCCCCCCC(=O)N[C@@H](CCN)C(=O)N[C@@](C)(C(=O)N[C@@H](CCN)C(=O)N[C@H]1CCNC(=O)[C@H]([C@@H](C)O)NC(=O)[C@H](CCN)NC(=O)[C@H](CCN)NC(=O)[C@H](CC(C)C)NC(=O)[C@@H](Cc2ccccc2)NC(=O)[C@H](CCN)N1)[C@H](C)O`, the figures for the MIC in the assay on Escherichia coli [1] and with Staphylococcus aureus were 0.5 µg/mL (≈ 0.425 µM) and more than 128 µg/mL, respectively.
